Reference: patent publication US11633497B2, “Anti-c-Met antibody drug conjugates” (AbbVie Inc., priority 2021, dated 2023)
Where two headings read alike, the source gives them in different places.

What was measured:
[1] = tested on: A375 cells (malignant melanoma); test: Cell proliferation, CellTiter-Glo luminescence, A375; format: cell-based; conditions: Homo sapiens, A-375, read-out: TOP1i Compound Potency EC50, A375
Excerpt: Proliferation of Calu-6 cells (lung adenocarcinoma) and A375 cells (malignant melanoma) were quantified using CellTiter-Glo® luminescence.

[2] = tested on: Calu-6 cells (lung adenocarcinoma); test: Cell proliferation, CellTiter-Glo luminescence, Calu-6; format: cell-based; conditions: Homo sapiens
Protocol: The effect of TOP1i drugs on cell viability was assessed by monitoring ATP presence for metabolically active cells. Proliferation of Calu-6 cells (lung adenocarcinoma) and A375 cells (malignant melanoma) were quantified using CellTiter-Glo® luminescence.

Row | EC50 ([2]; Calu-6 cell viability, CellTiter-Glo, read-out: TOP1i Compound Potency EC50, Calu-6) [nM] | Structure (SMILES) | EC50 [1] [nM] | EC50 ([2]; Calu-6, read-out: TOP1i Compound Potency EC50, Calu-6) [nM]
1 | – | CC[C@@]1(O)C(=O)OCc2c1cc1n(c2=O)Cc2c-1nc1cc3c(cc1c2C12CC(N)(C1)C2)OCO3 [Example 1G, (7S)-14-(3-aminobicyclo[1.1.1]pentan-1-yl)-7-ethyl-7-hydroxy-2H,10H-[1,3]dioxolo[4,5-g]pyrano[3′,4′:6,7]indolizino[1,2-b]quinoline-8,11(7H,13H)-dione] | 0.5 | 0.57
2 | 6.58 | CCc1c2c(nc3ccc(O)cc13)-c1cc3c(c(=O)n1C2)COC(=O)[C@]3(O)CC [SN-38, reference compound] | – | –
